Experimental data: ChEMBL document CHEMBL1201862, “PubChem BioAssay data set” (2004)
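How tested: cells in 96-well plates exposed to compound for 48 hours at five concentrations. GI50: concentration for 50% inhibition of growth.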 Calls of active or inactive are those of the source. Cut-off read from the data, not from the text of the source: active = GI50 up to about 1.1 µM and inactive = higher.

What was measured:
Experiment in all cases: DTP human tumour cell line panel, 48 h
U-251 = system: U-251
COLO 205 = system: COLO 205
MOLT-4 = system: MOLT-4
RXF 393 = system: RXF 393
UO-31 = system: UO-31
Malme-3M = system: Malme-3M
HOP-92 = system: HOP-92
SW-620 = system: SW-620
SK-MEL-2 = system: SK-MEL-2
SF-295 = system: SF-295
EKVX = system: EKVX
SK-OV-3 = system: SK-OV-3
SNB-19 = system: SNB-19
SN12C = system: SN12C
MDA-MB-231 = system: MDA-MB-231
MDA-MB-435 = system: MDA-MB-435
CCRF-CEM = system: CCRF-CEM
NCI-H522 = system: NCI-H522
RPMI-8226 = system: RPMI-8226

SMILES	GI50 (U-251)	GI50 (COLO 205)	GI50 (MOLT-4)	GI50 (RXF 393)	GI50 (UO-31)	GI50 (Malme-3M)	GI50 (HOP-92)	GI50 (SW-620)	GI50 (SK-MEL-2)	GI50 (SF-295)	GI50 (EKVX)	GI50 (SK-OV-3)	GI50 (SNB-19)	GI50 (SN12C)	GI50 (MDA-MB-231)	GI50 (MDA-MB-435)	GI50 (CCRF-CEM)	GI50 (NCI-H522)	GI50 (RPMI-8226)
O=C(/C=C/c1ccc(O)c(O)c1)OCCc1ccc2ccccc2c1	10.8 µM (inactive)	4.59 µM (inactive)	2.2 µM (inactive)	9.46 µM (inactive)	3.19 µM (inactive)	10.9 µM (inactive)	6.35 µM (inactive)	6.93 µM (inactive)	1.29 µM (inactive)	10.9 µM (inactive)	14.6 µM (inactive)	13.5 µM (inactive)	12.8 µM (inactive)	5.26 µM (inactive)	10.6 µM (inactive)	2.54 µM (inactive)	4.63 µM (inactive)	2.38 µM (inactive)	–
c1ccc(CCNCc2ccco2)nc1	> 100 µM (inactive)	> 100 µM (inactive)	> 100 µM (inactive)	> 100 µM (inactive)	> 100 µM (inactive)	> 100 µM (inactive)	> 100 µM (inactive)	> 100 µM (inactive)	> 100 µM (inactive)	> 100 µM (inactive)	> 100 µM (inactive)	> 100 µM (inactive)	> 100 µM (inactive)	> 100 µM (inactive)	> 100 µM (inactive)	> 100 µM (inactive)	> 48.6 µM (inactive)	> 100 µM (inactive)	–
CC(=O)C(=Cc1ccc(C=C(C(C)=O)C(C)=O)cc1)C(C)=O	1.79 µM (inactive)	1.7 µM (inactive)	0.244 µM (active)	1.9 µM (inactive)	1.6 µM (inactive)	2.01 µM (inactive)	2.12 µM (inactive)	0.611 µM (active)	2.39 µM (inactive)	2.11 µM (inactive)	5.31 µM (inactive)	6.07 µM (inactive)	2.1 µM (inactive)	1.63 µM (inactive)	1.97 µM (inactive)	1.63 µM (inactive)	0.193 µM (active)	1.37 µM (inactive)	0.282 µM (active)
OCCSCc1ccccc1	> 100 µM (inactive)	> 100 µM (inactive)	> 100 µM (inactive)	> 100 µM (inactive)	> 100 µM (inactive)	> 100 µM (inactive)	> 100 µM (inactive)	> 100 µM (inactive)	> 100 µM (inactive)	> 100 µM (inactive)	> 100 µM (inactive)	> 100 µM (inactive)	> 100 µM (inactive)	> 100 µM (inactive)	> 100 µM (inactive)	> 100 µM (inactive)	> 100 µM (inactive)	> 100 µM (inactive)	> 100 µM (inactive)
COC(=O)/C=C(\CC(=O)OC)n1nnnc1[C@@H]1C[C@H](COC(c2ccccc2)(c2ccccc2)c2ccccc2)[C@H]2OC(C)(C)O[C@H]21	> 100 µM (inactive)	39.3 µM (inactive)	> 100 µM (inactive)	42.1 µM (inactive)	> 100 µM (inactive)	> 100 µM (inactive)	> 100 µM (inactive)	> 100 µM (inactive)	> 100 µM (inactive)	> 100 µM (inactive)	54.2 µM (inactive)	> 100 µM (inactive)	> 100 µM (inactive)	> 100 µM (inactive)	> 100 µM (inactive)	> 100 µM (inactive)	22.9 µM (inactive)	51.6 µM (inactive)	11.1 µM (inactive)
S=C(N/N=C(/c1ccccc1)c1ccccn1)Nc1ccccc1Cl	0.0158 µM (active)	< 0.01 µM (active)	< 0.01 µM (active)	0.124 µM (active)	0.163 µM (active)	0.0681 µM (active)	0.226 µM (active)	< 0.01 µM (active)	0.148 µM (active)	0.356 µM (active)	0.0785 µM (active)	0.0266 µM (active)	4.95 µM (inactive)	0.168 µM (active)	< 0.01 µM (active)	0.265 µM (active)	< 0.01 µM (active)	< 0.0446 µM (active)	< 0.0448 µM (active)
C/C(CC(O)(C(F)(F)F)C(F)(F)F)=N\NC(N)=S	> 10 µM (inactive)	> 10 µM (inactive)	> 10 µM (inactive)	> 10 µM (inactive)	> 10 µM (inactive)	> 10 µM (inactive)	> 10 µM (inactive)	> 10 µM (inactive)	> 10 µM (inactive)	> 10 µM (inactive)	> 10 µM (inactive)	> 10 µM (inactive)	> 10 µM (inactive)	> 10 µM (inactive)	> 10 µM (inactive)	> 10 µM (inactive)	> 10 µM (inactive)	> 10 µM (inactive)	> 10 µM (inactive)
O=c1ssc2c1Nc1c(ssc1=O)S2	16.4 µM (inactive)	18 µM (inactive)	9.51 µM (inactive)	4.42 µM (inactive)	11.4 µM (inactive)	5.9 µM (inactive)	15 µM (inactive)	8.61 µM (inactive)	16.1 µM (inactive)	27.7 µM (inactive)	15.4 µM (inactive)	19.5 µM (inactive)	17.9 µM (inactive)	14.4 µM (inactive)	23.4 µM (inactive)	18.5 µM (inactive)	2.05 µM (inactive)	8.28 µM (inactive)	5.04 µM (inactive)
COc1ccc(/C(=N/O)c2ccccc2-c2nc3ccccc3c(=O)n2-c2ccc(S(=O)(=O)Nc3ncccn3)cc2)cc1C	11.8 µM (inactive)	18.9 µM (inactive)	12.2 µM (inactive)	11.1 µM (inactive)	19.6 µM (inactive)	> 10 µM (inactive)	8.73 µM (inactive)	18 µM (inactive)	–	12.9 µM (inactive)	16.5 µM (inactive)	6.81 µM (inactive)	20.8 µM (inactive)	> 30.2 µM (inactive)	18.4 µM (inactive)	14.9 µM (inactive)	13.6 µM (inactive)	14.2 µM (inactive)	14.6 µM (inactive)
O[C@@H]1[C@H](OC2c3ccccc3-c3ccccc32)[C@H](OCc2ccccc2)[C@@H]2OC[C@H]1O2	43.3 µM (inactive)	> 100 µM (inactive)	34.1 µM (inactive)	> 100 µM (inactive)	> 100 µM (inactive)	> 100 µM (inactive)	> 100 µM (inactive)	> 100 µM (inactive)	> 100 µM (inactive)	> 100 µM (inactive)	> 100 µM (inactive)	–	58.2 µM (inactive)	> 100 µM (inactive)	51.3 µM (inactive)	> 100 µM (inactive)	42.4 µM (inactive)	> 100 µM (inactive)	71.9 µM (inactive)
COC(=O)C(Cc1ccccc1)NC(=O)C(CCCNC(=N)N)NC(=O)OCc1ccccc1 (centres undefined)	> 100 µM (inactive)	> 100 µM (inactive)	> 100 µM (inactive)	> 100 µM (inactive)	> 100 µM (inactive)	> 100 µM (inactive)	> 100 µM (inactive)	> 100 µM (inactive)	–	> 100 µM (inactive)	> 100 µM (inactive)	> 100 µM (inactive)	> 100 µM (inactive)	> 100 µM (inactive)	> 100 µM (inactive)	> 100 µM (inactive)	> 100 µM (inactive)	> 100 µM (inactive)	> 100 µM (inactive)
CC(C)(C)C(=O)CC1(O)C=C(O)C(O)(CC(=O)C(C)(C)C)O1 (centres undefined)	36.8 µM (inactive)	21.7 µM (inactive)	8.51 µM (inactive)	1.84 µM (inactive)	29.4 µM (inactive)	86.9 µM (inactive)	29.9 µM (inactive)	–	38.7 µM (inactive)	48.5 µM (inactive)	61.1 µM (inactive)	29.9 µM (inactive)	36.8 µM (inactive)	14.7 µM (inactive)	55 µM (inactive)	41.9 µM (inactive)	6.46 µM (inactive)	20.4 µM (inactive)	19.7 µM (inactive)
CCc1cc2c(c3c1CCC3=O)CC1(Cc3ccc(C)cc3C1)C2 (centres undefined)	30.5 µM (inactive)	27.8 µM (inactive)	11.5 µM (inactive)	34.8 µM (inactive)	0.159 µM (active)	32.1 µM (inactive)	22.7 µM (inactive)	–	31.5 µM (inactive)	80.2 µM (inactive)	16.8 µM (inactive)	71.3 µM (inactive)	–	43.4 µM (inactive)	36.6 µM (inactive)	33.7 µM (inactive)	13.6 µM (inactive)	23.8 µM (inactive)	22.2 µM (inactive)
O=C(c1cccc(C(=O)c2ccc3c4c(cccc24)C(=O)N(c2ccccc2)C3=O)c1)c1ccc2c3c(cccc13)C(=O)N(c1ccccc1)C2=O	> 100 µM (inactive)	> 100 µM (inactive)	> 100 µM (inactive)	> 100 µM (inactive)	> 100 µM (inactive)	> 100 µM (inactive)	42.3 µM (inactive)	> 100 µM (inactive)	–	71.9 µM (inactive)	38 µM (inactive)	> 100 µM (inactive)	> 100 µM (inactive)	> 100 µM (inactive)	67.1 µM (inactive)	> 100 µM (inactive)	–	> 100 µM (inactive)	> 100 µM (inactive)
COc1ccc(NC(/C(C(=O)c2ccccc2)=C(\O)C(=O)/C=C(\O)c2ccccc2)c2ccc(OC)cc2)cc1 (centres undefined)	38.9 µM (inactive)	31 µM (inactive)	42.8 µM (inactive)	37.1 µM (inactive)	53.6 µM (inactive)	21.2 µM (inactive)	7.6 µM (inactive)	–	23.6 µM (inactive)	33 µM (inactive)	18.7 µM (inactive)	39.3 µM (inactive)	65.8 µM (inactive)	> 100 µM (inactive)	> 100 µM (inactive)	20.6 µM (inactive)	32.8 µM (inactive)	15.2 µM (inactive)	24.2 µM (inactive)
